Results on one compound are retold here after patent US20020098186A1, “Use of endothelin inhibitors for treatment or prevention of fibrotic disorders” (priority 1999, published 2002).

One series deals with TIMP-1 RNA. The experiment in a line: Multiprobe RNAse protection assay of liver RNA, TIMP-1. The class given is in vivo, rat. To be noted: BDO rats, LU 80 mg/kg/d for 6 weeks; relative to GAPDH; p<0.05. The method, then:
Plasmids encoded predescribed regions of the rat procollagen α1 (I) and […] (GAPDH) genes, encompassing 230 bp (Bam HI/Rsal sites) and 102 bp (position 335-437), resp. (44, 45). The rat tissue inhibitor of metalloproteinase-1 (TIMP-1) probe (position 176-439) was prepared by RT-PCR according to the published sequence (J. P. Iredale, R. C. Benyon, M. J. P. Arthur (1996). Hepatology 24:176-184.), cloned into pZErO-1 (Invitrogen, San Diego, Calif., U.S.A.) and confirmed by restriction enzyme analysis. Preparation of riboprobes: The cDNA templates were linearized with appropriate restriction endonucleases. […] Riboprobes were purified by electrophoresis through a denaturing polyacrylamide gel and the radioactivity of eluted probes were measured by liquid scintillation counting. […] Autoradiographic signals were analyzed with the public domain NTH Image Program. The procollagen α1(I) and TIMP-1 RNA signals were normalized to the signal of GAPDH RNA and expressed as relative abundance (arbitrary units). 10 liver samples each of negative controls, of untreated rats with BDO and of rats with BDO that received LU at 80 mg/kg/d were analyzed.

Series [1] relates to desmin-positive cells (rat hepatic stellate cells). The experiment in a line: Desmin staining of liver sections (activated hepatic stellate cells). Type of series: in vivo. To be noted: LU-treated animals (data not shown).
Series [2] can be described thus: Tolerability in BDO and sham-operated rats (death, renal toxicity, food consumption, measured parameters). The class given is in vivo. The method, then:
Female adult wistar rats, average weight 206±19 g, underwent the following microsurgical procedure under an operating microscope (OPMI 6-2, Zeiss, Germany) (B. Gerling, M. Becker, J. Waldschmidt, D. Schuppan (1996). J. Hepatol. 25:79-84; G. Boigk, L. Stroedter, H. Herbst H, et al. (1997). Hepatology 26:643-639.): 1. midline abdominal incision following anaesthesia with 100 mg/kg ketamine-hydroochloride (Ketanest®, Parke-Davis, Germany) and 10 mg/kg 5,6-dihydro-2-(2,6-xylidino)-4H-1,3-thiazine-hydrochloride (Rompun®, Bayer, Germany); 2. dissection of the common bile duct, insertion of a teflon catheter (Abbocath -T 26 G, venisystems, U.S.A.) and placement of a distal complete and a proximal incomplete ligature with 5-0 silk (Permahand , Ethicon, Germany); 3. retrograde injection of sodium-amidotrizoate (Ethibloc®, Ethicon Germany) at a dose of 0.02 ml/100 g body weight; 4. removal of the catheter, closure of the proximal ligature, scission of the bile duct between the ligatures and wound closure. After bile duct occlusion (BDO), animals received normal chow (Altromin®, Lage, Germany) and were allowed free access to water. […] The following therapeutic groups were formed: 1. BDO and LU at 80 mg/kg/d for 6 weeks (BDO 80/1-6:n=20); 2. BDO and LU at 80 mg/kg/d from week 4-6 of BDO (BDO 80/4-6:n=20); 3. BDO and LU at 10 mg/kg/d (sham 80/ 1-6:n=10), rats without medication (control: n=10) and bile duct occluded animals without treatment for 6 weeks (BDO: n=20) served as controls.
Early mortality (within 1 h to 3 days) in rats with BDO was due to local infection and amounted to 9%. […] After 6 weeks rats were sacrificed under ketanest(rompun-anaesthesia by puncture of the right ventricle and exsanguination. Heart, liver, spleen and kidneys were weighed, and 1-2 g pieces of the left and the right liver lobes fixed in 4% formalin for histology and hydroxyproline (HYP) determinations.
Rats with sham operation and rats with BDO were fed the oral endothelin A receptor antagonist LU 135252 (LU).
However, liver collagen (both as relative and total liver collagen content), which was increased 6- and 12-fold above normal, resp., in the untreated group with BDO, was reduced by 50-55% in rats on 80 mg LU/kg/d over the 6 weeks of BDO (p<0.001) (FIG. 1). […] Since contrary to the sham-operated rats, LU at 80 mg/kg/d which represents a high dose, caused death dose-dependently due to rental tubular necrosis in 50% and 25% of the two treatment groups, resp., a second experiment with a lower dose (10 mg/kg/d) over 6 weeks of BDO was performed.

Take `COc1cc(OC)nc(O[C@H](C(=O)O)C(OC)(c2ccccc2)c2ccccc2)n1` [LU]: in the series on TIMP-1 RNA, the “Reduction of TIMP-1 mRNA level” value amounted to 55%. Besides, the “Number of desmin-positive cells in liver sections” value in series [1] is on record as “significantly reduced”. In addition, in series [2] (BDO rats, 10 mg/kg/d over 6 weeks), the “Death or renal toxicity” value is listed as “no death or renal toxicity was observed”. In addition, the “Death due to renal tubular necrosis (share of treatment group)” value was 50% in series [2] (BDO rats, LU 80 mg/kg/d for 6 weeks) and 25% in series [2] (BDO rats, LU 80 mg/kg/d from week 4-6). The “Food consumption by the animals” value in series [2] (LU mixed with the chow) is recorded as “did not alter food consumption”. Also, in series [2] (sham-operated rats, LU 80 mg/kg/d for 6 weeks), the “Measured parameters (body and organ weights, liver collagen, liver histology, clinical chemical values)” value was “did not alter any of the measured parameters”.
